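Test compounds were applied to cells in 96-well plates for 48 hours at 5 doses. GI50 = concentration required for 50% inhibition of growth.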 Activity calls are given as the source filed them. Cut-off read from the data, not from the text of the source: active = GI50 up to about 1.1 µM and inactive = higher.
Tests used:
Experiment in all cases: NCI anticancer screen, dose series, 48 h
[1] = test system: MOLT-4
[2] = test system: MDA-MB-435
[3] = test system: CCRF-CEM
[4] = test system: LOX IMVI
[5] = test system: SF-295
[6] = test system: MDA-MB-231
[7] = test system: NCI-H226
[8] = test system: Malme-3M
[9] = test system: HT-29
[10] = test system: EKVX
[11] = test system: UACC-62
[12] = test system: OVCAR-4
[13] = test system: A549
[14] = test system: SR
[15] = test system: UO-31
[16] = test system: SNB-75
[17] = test system: T47D
[18] = test system: HOP-62
[19] = test system: Hs-578T
[20] = test system: PC-3
[21] = test system: SF-268
[22] = test system: SF-539
[23] = test system: RXF 393
[24] = test system: RPMI-8226
[25] = test system: SN12C
[26] = test system: HOP-92
[27] = test system: HCT-15
[28] = test system: SNB-19
[29] = test system: NCI-H23
[30] = test system: KM12
[31] = test system: OVCAR-8
[32] = test system: 786-0
[33] = test system: SW-620
[34] = test system: U-251
[35] = test system: OVCAR-3
[36] = test system: NCI/ADR-RES
[37] = test system: IGROV-1
[38] = test system: NCI-H460
[39] = test system: MDA-N
[40] = test system: OVCAR-5
[41] = test system: ACHN
[42] = test system: BT-549
[43] = test system: SK-MEL-2
[44] = test system: K562
[45] = test system: SK-MEL-28
[46] = test system: SK-OV-3
[47] = test system: TK-10
[48] = test system: A498
[49] = test system: SK-MEL-5
[50] = test system: MCF7
[51] = test system: HCC 2998
[52] = test system: HL-60
[53] = test system: DU-145
[54] = test system: M14
[55] = test system: NCI-H522
[56] = test system: CAKI-1
[57] = test system: UACC-257
[58] = test system: HCT-116
[59] = test system: COLO 205

C[C@]12CC[C@H](O)CC1=CC[C@@H]1[C@@H]2CC[C@]2(C)c3nc(Cl)ccc3C[C@@H]12
GI50 [1]: 8.45 µM (inactive)
GI50 [2]: 6.76 µM (inactive)
GI50 [3]: 8.17 µM (inactive)
GI50 [4]: 57.1 µM (inactive)
GI50 [5]: 28.2 µM (inactive)
GI50 [6]: > 94.6 µM (inactive)
GI50 [7]: > 100 µM (inactive)
GI50 [8]: 53 µM (inactive)
GI50 [9]: 10.9 µM (inactive)
GI50 [10]: 11.4 µM (inactive)
GI50 [11]: 11.5 µM (inactive)
GI50 [12]: > 53.7 µM (inactive)
GI50 [13]: 25 µM (inactive)
GI50 [14]: 11.4 µM (inactive)
GI50 [15]: 7.52 µM (inactive)
GI50 [16]: 25 µM (inactive)
GI50 [17]: > 63.4 µM (inactive)
GI50 [18]: 30.7 µM (inactive)
GI50 [19]: 35.2 µM (inactive)
GI50 [20]: 74.3 µM (inactive)
GI50 [21]: 26.7 µM (inactive)
GI50 [22]: 14.9 µM (inactive)
GI50 [23]: 37.9 µM (inactive)
GI50 [24]: 39.4 µM (inactive)
GI50 [25]: 44.8 µM (inactive)
GI50 [26]: > 100 µM (inactive)
GI50 [27]: 9.46 µM
GI50 [28]: 36.1 µM (inactive)
GI50 [29]: 24.6 µM (inactive)
GI50 [30]: 22.2 µM (inactive)
GI50 [31]: 62.5 µM (inactive)
GI50 [32]: 30.1 µM (inactive)
GI50 [33]: > 42.3 µM (inactive)
GI50 [34]: 31 µM (inactive)
GI50 [35]: 27.3 µM (inactive)
GI50 [36]: 29.5 µM (inactive)
GI50 [37]: 61.5 µM (inactive)
GI50 [38]: 28.1 µM (inactive)
GI50 [39]: 12.2 µM (inactive)
GI50 [40]: > 80.9 µM (inactive)
GI50 [41]: 15.6 µM (inactive)
GI50 [42]: 26.1 µM (inactive)
GI50 [43]: > 100 µM (inactive)
GI50 [44]: 5.78 µM (inactive)
GI50 [45]: > 64.1 µM (inactive)
GI50 [46]: 42.7 µM (inactive)
GI50 [47]: > 56.8 µM (inactive)
GI50 [48]: > 100 µM (inactive)
GI50 [49]: > 46.2 µM (inactive)
GI50 [50]: > 64.7 µM (inactive)
GI50 [51]: > 58.1 µM (inactive)
GI50 [52]: 40.1 µM (inactive)
GI50 [53]: > 100 µM (inactive)
GI50 [54]: > 59.4 µM (inactive)
GI50 [55]: 49.8 µM (inactive)
GI50 [56]: > 100 µM (inactive)
GI50 [57]: > 100 µM (inactive)
GI50 [58]: 47 µM (inactive)
GI50 [59]: > 100 µM (inactive)

CCCCC1Cc2cc(OC)ccc2-c2n1c1cc(OC)ccc1[n+]2C.CCCCC1Cc2cc(OC)ccc2-c2n1c1ccc(OC)cc1[n+]2C (stereo not drawn)
GI50 [1]: 4.79 µM (inactive)
GI50 [2]: 0.944 µM (active)
GI50 [3]: 2.64 µM (inactive)
GI50 [4]: 2.87 µM (inactive)
GI50 [5]: 2.39 µM (inactive)
GI50 [6]: 2.63 µM (inactive)
GI50 [7]: 2.92 µM (inactive)
GI50 [8]: 0.935 µM (active)
GI50 [9]: 1.97 µM (inactive)
GI50 [10]: 0.466 µM (active)
GI50 [11]: 0.528 µM (active)
GI50 [12]: 2.31 µM (inactive)
GI50 [13]: 1.48 µM (inactive)
GI50 [14]: 2.44 µM (inactive)
GI50 [15]: 15.5 µM (inactive)
GI50 [16]: 6.19 µM (inactive)
GI50 [17]: 0.656 µM (active)
GI50 [18]: 6.08 µM (inactive)
GI50 [19]: 2.77 µM (inactive)
GI50 [20]: 2.6 µM (inactive)
GI50 [21]: 1.3 µM (inactive)
GI50 [22]: 3.34 µM (inactive)
GI50 [23]: 14.2 µM (inactive)
GI50 [24]: 0.221 µM (active)
GI50 [25]: 0.975 µM (active)
GI50 [26]: 0.427 µM (active)
GI50 [27]: 21.7 µM
GI50 [28]: 0.904 µM (active)
GI50 [29]: 0.839 µM (active)
GI50 [30]: 0.873 µM (active)
GI50 [31]: 2.75 µM (inactive)
GI50 [32]: 7.13 µM (inactive)
GI50 [33]: 2.82 µM (inactive)
GI50 [34]: 0.332 µM (active)
GI50 [35]: 1.4 µM (inactive)
GI50 [36]: > 100 µM (inactive)
GI50 [37]: 1.6 µM (inactive)
GI50 [38]: 3.65 µM (inactive)
GI50 [39]: 1.47 µM (inactive)
GI50 [40]: 9.77 µM (inactive)
GI50 [41]: 12.6 µM (inactive)
GI50 [42]: 1.66 µM (inactive)
GI50 [43]: 2.46 µM (inactive)
GI50 [44]: 0.475 µM (active)
GI50 [45]: 6.3 µM (inactive)
GI50 [46]: 10 µM (inactive)
GI50 [47]: 2.18 µM (inactive)
GI50 [48]: 16.9 µM (inactive)
GI50 [49]: 0.764 µM (active)
GI50 [50]: 0.953 µM (active)
GI50 [51]: 0.703 µM (active)
GI50 [52]: 0.261 µM (active)
GI50 [53]: 5.32 µM (inactive)
GI50 [54]: 3.76 µM (inactive)
GI50 [55]: 0.681 µM (active)
GI50 [56]: 35.8 µM (inactive)
GI50 [57]: 1.04 µM (active)
GI50 [58]: 3.22 µM (inactive)
GI50 [59]: 0.401 µM (active)

From ChEMBL document CHEMBL1201862, “PubChem BioAssay data set” (2004)
